These results are taken from ChEMBL document CHEMBL3352057, “Novel fluorinated pyrrolo[1,2-a]pyrazine-2,6-dione derivatives: synthesis and anticonvulsant evaluation in animal models of epilepsy” (Bioorg Med Chem, 2014).

For series [1], the system named is Mus musculus. As to the kind of experiment: Anticonvulsant activity in ip dosed albino CF1 mouse assessed as protection against 6 Hz current-induced seizures. The format is functional.
Series [2] has as its system Mus musculus. As to the kind of experiment: Anticonvulsant activity in ip dosed albino CF1 mouse assessed as protection against maximal electroshock-induced seizures. Type of series: functional. For orientation: Protection in the maximal electroshock model is a classic sign of anticonvulsant action.
Series [3] deals with Mus musculus. Nature of the series: Neurotoxicity in ip dosed 6 Hz current-induced seizure albino CF1 mouse model. Particulars: in vivo. The format is toxicity, organism-based.
The test system of series [4] is Mus musculus. As to the kind of experiment: Anticonvulsant activity in ip dosed albino CF1 mouse assessed as protection against subcutaneous metrazol-induced seizures. The format is functional.
The nature of series [5]: Neurotoxicity in ip dosed albino CF1 mouse. The format is toxicity, organism-based. Particulars: in vivo.
The test system of series [6] is Mus musculus. Nature of the series: Anticonvulsant activity in ip dosed albino CF1 mouse assessed as protection against 6 Hz current-induced seizures measured as time to peak effect. Type of series: functional.
The test system of series [7] is Mus musculus. Nature of the series: Anticonvulsant activity in ip dosed albino CF1 mouse assessed as protection against maximal electroshock-induced seizures measured as time to peak effect. The format is functional.
For series [8], the system named is Rattus norvegicus. As to the kind of experiment: Anticonvulsant activity in ip dosed hippocampal kindled albino Sprague-Dawley rat seizure model assessed as time of rest. The format is functional, Hippocampus.
For series [9], the system named is Rattus norvegicus. Nature of the series: Anticonvulsant activity in ip dosed hippocampal kindled albino Sprague-Dawley rat seizure model. Type of series: functional. The conditions noted are these: Hippocampus.

The structures appear in SMILES notation.

A word on the ED50: it is the dose that gives a 50% effect, or the effect in half of the subjects. As usually defined, the TD50 is the dose at which the toxic effect under study appears in half of the subjects. Read a low TD50 as harm at a small dose. Take `CCC1(C)CC(=O)NC1=O` (configuration not stated) [ETHOSUXIMIDE]: the ED50 with Mus musculus [1] was 1180 µmol/kg; in the series with Mus musculus [2] it was greater than 3550 µmol/kg; in the series with Mus musculus [3], 166 µmol/kg; in the series with Mus musculus [4] it was 964 µmol/kg. Besides, the TD50 in [5] was 2420 µmol/kg. Also, the Time in the series on Mus musculus [6] and with Mus musculus [7] was 0.25 h each time.

`COC[C@@H](NC(C)=O)C(=O)NCc1ccccc1` [LACOSAMIDE]: the results for the ED50 in the series with Mus musculus [2], in the series with Mus musculus [4] and with Rattus norvegicus [9] were 18 µmol/kg, greater than 100 µmol/kg and 56 µmol/kg, respectively. For the same compound, the Time with Rattus norvegicus [8] was 0.25 h; in the series with Mus musculus [7] it was 0.5 h. The same compound yielded a TD50 in series [5] of 107 µmol/kg.

`CCC1(c2ccccc2)C(=O)NC(=O)NC1=O` [PHENOBARBITAL]: the ED50 with Mus musculus [2] amounted to 94 µmol/kg; with Mus musculus [4], 57 µmol/kg. For the same compound, the TD50 in [5] came out at 297 µmol/kg. The Time in the series with Mus musculus [7] was 1 h.
